Three molecules from patent publication EP3838286B1, “ANTIMICROBIAL PEPTIDE FROM POLISTES GALLICUS VENOM AND ITS ANALOGS” (Latoxan, priority 2019, dated 2021) can be followed below.

In one data set the test system is M. smegmatis. Particulars: 72 h.
The test system of the next data set is Pseudomonas aeruginosa. Description: Stability of the peptides to proteases and human serum (MIC of digested peptides). Particulars: against Pseudomonas aeruginosa. It counts as in vitro ADME. Here is the method:
In order to evaluate the stability of the peptides to condition they will face in vivo, their resistance to proteases and human serum was evaluated (Oyama et al., 2017 Biofilms Microbiomes, Dec 1;3:33). Briefly, one volume of peptides (at 1 mM) was diluted in one volume of proteases (Pepsin, Trypsin, Chymotrypsin, Papain all from Sigma Aldrich and diluted at 2 mg/ml in HCl 10 mM pH2 for Pepsin, PBS pH 7 for Trypsin and Chymotrysin and PBS pH 6 for Papain) or human serum (Sigma Aldrich H4522). Peptides incubated in the same conditions in PBS were used as controls. After 4 h (for proteases) and 4 or 24 h (for human serum) of incubation at 37°C, PMSF was added to the reaction mixture at a final concentration of 100 µM to stop the digestion. MIC of the digested peptides were then determined as explained above.

For another data set, the system named is MDA-MB-231. Description: Antitumor / antiproliferative activity (resazurin). Format: cell-based, human. Particulars: breast cancer cells; 5,000 cells/well; 48 h; read-out: IC50 antiproliferative effect MDA-MB-231. The method, then:
(§1) Human cancer cell lines (Mia PaCa-2 (CRL-1420), PC-3 (CRL-1435), MDA-MB-231 (HTB-26)) and normal lung fibrobasts (BEAS-2B (ATCC CRL-9609) and IMR-90 (ATCC CCL-186)) were obtained from American Type Culture Collection (ATCC). HUVEC cells were obtained from Sigma Aldrich and were grown in defined all-in-one ready to use endothelial cell growth medium (Sigma Aldrich). Other cells were cultured in Dulbecco's modified Eagle's medium (DMEM, Gibco Life Technologies) supplemented with 10% heat-inactivated fetal calf serum (FCS, Lonza) at 37 °C in an incubator containing 5% CO2. Cells were sub-cultured in new media every 3-4 days. Antiproliferative / antitumor effects of the peptides were measured as previously described (Borie et al., Eur J Med Chem. 2018;148:306-313). Briefly, cells were detached from growing flask using trypsin, cells were counted and seeded in 96 well-plates in the growth media at an initial cell density of 5000 cells/well. Cells were left for 4 h to attach to the wells. Cells were then treated with increasing concentrations of peptides diluted in culture media. After 48 h incubation at 37 °C in a 5% CO2 incubator, wells were emptied and cell number was evaluated using Resazurin based in vitro toxicity assay kit (from Sigma-Aldrich) following manufacturer's instructions. Briefly, Resazurin stock solution was diluted 1:10 in sterile PBS containing calcium and magnesium (PBS, pH 7.4) and empty wells were filled with 100 µL of the diluted solution. After 4 h incubation at 37 °C, fluorescence intensity was measured using microplate reader (Synergy Mx, Biotek) with an excitation wavelength of 530 nm and an emission wavelength of 590 nm. The fluorescence values were normalized by the controls (buffer treated cells) and expressed as per-cent viability. The IC50 values of peptides on cell division / proliferation (i.e. the concentration of derivative causing a reduction of 50% of cell division) were determined using GraphPad ® Prism 7 software. t-Test and two way ANOVA analyses were used to address the significant differences between mean values with significance set at p < 0.05.

A further data set concerns PC-3. Description: Antitumor / antiproliferative activity (resazurin). Format: cell-based, human. Particulars: prostate cancer cells; 5,000 cells/well; 48 h; read-out: IC50 antiproliferative effect PC-3. The method, then:
as §1

In the next data set the test system is MiaPaCa-2. Description: Antitumor / antiproliferative activity (resazurin). Particulars: pancreas cancer cells; 5,000 cells/well; 48 h; read-out: IC50 antiproliferative effect MiaPaCa-2. It counts as cell-based, human. Here is the method:
as §1
In general terms: Resazurin is reduced to fluorescent resorufin, in cell work by metabolically active cells.

Data set [1] is described as follows: Cytotoxicity assay (resazurin). Format: cell-based. Particulars: human. Here is the method:
Normal human cells used were BEAS-2B (ATCC CRL-9609), IMR-90 (ATCC CCL-186) and Human Umbilical Vein Endothelial Cells (HUVEC) (from Sigma-Aldrich) corresponding respectively to human normal lung epithelial, normal lung fibroblast cells and human normal endothelial cells. All cells except HUVEC cells were cultured in Dulbecco's modified essential medium (DMEM) supplemented with 10% fetal calf serum (FCS), 1% L-glutamine and 1% antibiotics (all from Invitrogen). HUVEC cells were cultured in specific endothelial media (from Sigma Aldrich). Cells were seeded onto […] maintained in a 5% CO2 incubator at 37 °C. Cells grown on 25 cm^2 flasks were detached using trypsin-EDTA solution (from Thermofisher), counted using Mallassez counting chamber and seeded into 96-well cell culture plates (Greiner bio-one) at approximately 10,000 cells per well. The cells were left to grow for 48-72 h at 37 °C in a 5% CO2 incubator until they reached confluence. Plates were then aspirated and increasing concentrations of peptides diluted in culture media were added to the cells for 48 h at 37 °C in a 5% CO2 incubator. At the end of the incubation, wells were emptied and cell viability was evaluated using Resazurin based in vitro toxicity assay kit (from Sigma-Aldrich) following manufacturer's instructions. Briefly, Resazurin stock solution was diluted 1:10 in sterile PBS containing calcium and magnesium (PBS, pH 7.4) and empty wells were filled with 100 µL of the diluted solution. After 4 h incubation at 37 °C, fluorescence intensity was measured using microplate reader (Synergy Mx, Biotek) with an excitation wavelength of 530 nm and an emission wavelength of 590 nm. The fluorescence values were normalized by the controls (buffer treated cells) and expressed as percent viability. The IC50 values of peptides on cell viability (i.e. the concentration of derivative causing a reduction of 50% of cell viability) were determined using GraphPad® Prism 7 software. t-Test and two way ANOVA analyses were used to address the significant differences between mean values with significance set at p < 0.05.

Data set [2] relates to P. aeruginosa.
The subject of data set [3] is B. subtilis (Nisin-resistant).
The next data set has as its system B. subtilis. Description: Selection for resistant bacteria (serial passaging). Particulars: daily exposure at sub-MIC levels, 30 days; antibiotic: after 10 days. It counts as cell-based. Here is the method: To evaluate if populations of AMP-resistant bacteria could be selected, cultures were continuously exposed to LTX-gallicune-1 (I1N1) and LTX-gallicune-2(R1W8) peptides for a duration of 30 days, as previously described (Oyama et al., 2017 Biofilms Microbiomes, Dec 1;3:33). Briefly, broth microdilution susceptibility testing was performed using a standard doubling-dilution series of gallicune peptides concentrations on day 1. Following incubation of the cultures for 24 h, and determination of the MIC, the well that contained the highest concentration of AMPs permitting growth was diluted 1: 1000 in MH and used to provide the inoculum for the next MIC assay; this process was repeated daily for 30 days.

The test system of data set [4] is P. aeruginosa. Briefly: Antimicrobial tests (MIC/MBC, two-fold serial dilution). Particulars: Table 3; n=4. It counts as cell-based, Pseudomonas aeruginosa (ATCC 9037).

Converted amounts (≈) assume the structure as drawn. Read-outs that look alike come from different tables or passages of the source. Square brackets hold non-standard residues; d marks the D form. Peptide text beside a SMILES is read from it.

What is called IC50 is the concentration at which inhibition is half-maximal. Take `CC[C@@H](C)[C@@H](N)C(=O)N[C@@H](CC(C)C)C(=O)N[C@@H](CCCCN)C(=O)N[C@@H](C)C(=O)N[C@H](C(=O)N[C@@H](CCCCN)C(=O)N[C@@H](CCCCN)C(=O)N[C@@H](CC(C)C)C(=O)N[C@@H](CC(C)C)C(=O)N[C@@H](CCCCN)C(=O)N[C@H](CC(N)=O)C(N)=O)[C@@H](C)CC` [LTX-gallicune-1(i1D-n11D)] (H-[dI]LKAIKKLLK[dN]-NH2): in the data set on V. alginolyticus, the “MBC (µM) V. alginolyticus” value was found to be 0.78 µM (≈ 0.999 µg/mL) and the “MIC (µM) V. alginolyticus” value came out at 0.78 µM (≈ 0.999 µg/mL). The “MIC (µM) M. smegmatis” value against M. smegmatis was 25 µM (≈ 32 µg/mL). Moreover, in the data set with H. pylori, the “MBC (µM) H. pylori” value turned out to be 25 µM (≈ 32 µg/mL) and the “MIC (µM) H. pylori” value is recorded as 25 µM (≈ 32 µg/mL). Moreover, in the data set with S. flexneri, the “MBC (µM) S. flexneri” value stood at 12.5 µM (≈ 16 µg/mL) and the “MIC (µM) S. flexneri” value is recorded as 12.5 µM (≈ 16 µg/mL). Further, the “MIC (µM) Serum4h” value with Pseudomonas aeruginosa (after 4 h at 37°C in human serum) was over 50 µM. Moreover, the “MIC (µM) Chymotrypsin” value in the data set with Pseudomonas aeruginosa (after 4 h at 37°C with chymotrypsin, pH 7) is listed as over 50 µM. The “MIC (µM) Pepsin” value in the data set on Pseudomonas aeruginosa (after 4 h at 37°C with pepsin, pH2) is over 50 µM. Moreover, in the data set with Pseudomonas aeruginosa (after 4 h at 37°C with trypsin, pH 7), the “MIC (µM) Trypsin” value is over 50 µM. Besides, the “MIC (µM) Serum24h” value in the data set with Pseudomonas aeruginosa (after 24 h at 37°C in human serum) worked out at 25 µM. For the same molecule, the “MIC (µM) Control” value in the data set with Pseudomonas aeruginosa (peptide incubated in PBS, not treated with proteases) was found to be 3.125 µM. For the same molecule, in the data set on S. enterica, the “MBC (µM) S. enterica” value is 25 µM (≈ 32 µg/mL) and the “MIC (µM) S. enterica” value was 25 µM (≈ 32 µg/mL). The IC50 in the data set on MDA-MB-231 amounted to 75.6 µM. In addition, in the data set on PC-3, the IC50 turned out to be 32.3 µM. In the data set with MiaPaCa-2, the IC50 worked out at 4.61 µM. The “MIC (µM) A.baumani” value in the data set with A.baumani is 12.5 µM (≈ 16 µg/mL). In the data set on A. gandavensis, the “MBC (µM) A. gandavensis” value is recorded as 1.5 µM (≈ 1.92 µg/mL) and the “MIC (µM) A. gandavensis” value was found to be 1.5 µM (≈ 1.92 µg/mL). In the data set with P. aeruginosa FQR, the “MBC (µM) P. aeruginosa FQR” value stood at 25 µM (≈ 32 µg/mL) and the “MIC (µM) P. aeruginosa FQR” value lay in the range of 6.25 to 12.5 µM. For the same molecule, the CC50 at 48 h in [1] (BEAS-2B normal lung epithelial cells, normal lung epithelium, read-out: Cytotoxicity IC50 (µM) BEAS) was found to be 391 µM. Also, the CC50 at 48 h in data set [1] (HUVEC (human umbilical vein endothelial cells), normal endothelium, read-out: Cytotoxicity IC50 (µM) HUVEC) is 436 µM. For the same molecule, the CC50 at 48 h in [1] (IMR-90 normal lung fibroblast cells, read-out: Cytotoxicity IC50 (µM) IMR90) amounted to 362 µM. In addition, in the data set with P. aeruginosa 01, the “MBC (µM) P. aeruginosa 01” value came out at 12.5 µM (≈ 16 µg/mL) and the “MIC (µM) P. aeruginosa 01” value is reported as 6.25 µM (≈ 8 µg/mL). Moreover, in the data set on P. aeruginosa [2], the “MBC (µM) P. aeruginosa” value is listed as 1.5 µM (≈ 1.92 µg/mL), the “MIC (µM) P. aeruginosa” value is listed as 1.5 µM (≈ 1.92 µg/mL) and the “MIC PA” value is recorded as 1.5 µM (≈ 1.92 µg/mL). Also, in the data set on E. coli EHEC K88, the “MBC (µM) E. coli EHEC K88” value turned out to be 50 µM (≈ 64 µg/mL) and the “MIC (µM) E. coli EHEC K88” value amounted to 25 µM (≈ 32 µg/mL). Besides, in the data set on C. rodentium, the “MBC (µM) C. rodentium” value is reported as 25 µM (≈ 32 µg/mL) and the “MIC (µM) C. rodentium” value stood at 25 µM (≈ 32 µg/mL). For the same molecule, in [3], the “MBC (µM) B. subtilis (Nisin-resistant)” value is 6.25 µM (≈ 8 µg/mL) and the “MIC (µM) B. subtilis (Nisin-resistant)” value was 6.25 µM (≈ 8 µg/mL). Further, in the data set with L. lactis, the “MBC (µM) L. lactis” value turned out to be 0.78 µM (≈ 0.999 µg/mL) and the “MIC (µM) L. lactis” value worked out at 1.5 µM (≈ 1.92 µg/mL). Moreover, in the data set with C. farmeri, the “MBC (µM) C. farmeri” value stood at 12.5 µM (≈ 16 µg/mL) and the “MIC (µM) C. farmeri” value is given as 6.25 µM (≈ 8 µg/mL).

As to `C/C(=C\C(=O)OCCCCCCCCC(=O)O)C[C@@H]1OC[C@H](C[C@@H]2O[C@H]2[C@@H](C)[C@H](C)O)[C@@H](O)[C@H]1O` [Mupirocin], in the data set with B. subtilis, the “change of MIC against B. subtilis on serial passaging (resistance acquisition)” value is listed as “increasing”.

Broadly, the MIC is the lowest concentration that inhibits growth of the organism. Low readings indicate greater potency, high ones weaker potency. In turn, Gentamycine had an MIC with P. aeruginosa [4] of 0.3 µM.
